Measured values: US20120021014A1, “CORROSION CURRENT-GENERATING METAL PARTICULATES AND USE THEREOF” (priority 2010, published 2012)

Assays:
[1] = tested on: male albino Wistar rats (SPRAGUE DAWLEY); assay: CFA-induced ankle arthritis, incapacitance test (weight bearing); type: in vivo; conditions: positive control, 3 mg/kg once daily prior to the functional measurements
[2] = tested on: male albino Wistar rats (SPRAGUE DAWLEY); assay: CFA-induced ankle arthritis, joint swelling (paw volume difference); type: in vivo; conditions: positive control, 3 mg/kg once daily; CFA-induced paw vs control paw
human keratinocyte cells = assay: Hydrogen peroxide production in human keratinocytes (CM-H2DCFDA fluorescence); type: cell-based; conditions: 0.03% positive control; 60 Minutes
Description: The cells were treated with different amounts of the magnesium powder.

Albino male CD-1 mice = assay: Oxazolone immune cell-mediated skin inflammation model (ear biopsy weight); type: in vivo; conditions: 1 mg/ml positive control, topical to ear; 24 hours

For CN1CC[C@]23c4c5ccc(O)c4O[C@H]2[C@@H](O)C=C[C@H]3[C@H]1C5.O=S(=O)(O)O [Morphine, morphine sulphate], the “Deficiency Improvement, MEAN IMPROVEMENT (weight bearing percent minus Day 4 baseline, averaged over all time points)” value [1] was 16.85 and the “MEAN PAW VOLUME DIFFERENCE” value [2] was 1.38 mL.

For OO [H2O2, hydrogen peroxide], the “Hydrogen peroxide production (fluorescence 485 nm excitation/530 nm emission)” value (human keratinocyte cells) was 150.11 ± 2.9.

With C[C@]12CCC(=O)C=C1CC[C@@H]1[C@@H]2[C@@H](O)C[C@@]2(C)[C@H]1CC[C@]2(O)C(=O)CO [Hydrocortisone, hydrocortisone] the “Percent Inhibition of Skin Inflammation” value (Albino male CD-1 mice) was 70.3% ± 6.6%.
